Results: the supplement of paper PMC8882468
± gives the standard deviation of the averaged measurements.

system: MDA-MB-231; test: CTG-3D luminescence at 96 h relative to day-0 seeding control (ratio to day 0); higher = more growth / less cytotoxicity; PDxO 3D drug screen, 96 h, CTG-3D normalised to day-0 seeding control.; details: 12.5 pM

| SMILES | CTG-3D luminescence at 96 h |
| --- | --- |
| CC(C)(C(=O)NCC(F)(F)C(F)(F)F)C(=O)N[C@@H]1C(=O)Nc2ccccc2-c2ccccc21 | 4.58 ± 1.4 |
| C=CC(=O)N1CCC[C@@H](n2nc(-c3ccc(Oc4ccccc4)cc3)c3c(N)ncnc32)C1 [ibrutinib] | 4.49 ± 1.4 |
| CNC(=O)c1cccc(-c2ccc3c(N4CCOC[C@@H]4C)nc(N4CCOC[C@@H]4C)nc3n2)c1 [vistusertib] | 4.58 ± 1.4 |
| CCN(c1cc(C#CCN2CCOCC2)cc(C(=O)NCc2c(C)cc(C)[nH]c2=O)c1C)[C@H]1CC[C@H](N(C)CCOC)CC1 | 4.49 ± 1.2 |

same assay, conditions: 0.00025 µM

| SMILES | CTG-3D luminescence at 96 h |
| --- | --- |
| CC(C)(C(=O)NCC(F)(F)C(F)(F)F)C(=O)N[C@@H]1C(=O)Nc2ccccc2-c2ccccc21 | 4.53 ± 1.4 |
| C=CC(=O)N1CCC[C@@H](n2nc(-c3ccc(Oc4ccccc4)cc3)c3c(N)ncnc32)C1 [ibrutinib] | 4.45 ± 1.4 |
| CNC(=O)c1cccc(-c2ccc3c(N4CCOC[C@@H]4C)nc(N4CCOC[C@@H]4C)nc3n2)c1 [vistusertib] | 4.53 ± 1.6 |
| CCN(c1cc(C#CCN2CCOCC2)cc(C(=O)NCc2c(C)cc(C)[nH]c2=O)c1C)[C@H]1CC[C@H](N(C)CCOC)CC1 | 4.37 ± 1.4 |

same assay, conditions: 0.005 µM

| SMILES | CTG-3D luminescence at 96 h |
| --- | --- |
| CC(C)(C(=O)NCC(F)(F)C(F)(F)F)C(=O)N[C@@H]1C(=O)Nc2ccccc2-c2ccccc21 | 4.6 ± 1.4 |
| C=CC(=O)N1CCC[C@@H](n2nc(-c3ccc(Oc4ccccc4)cc3)c3c(N)ncnc32)C1 [ibrutinib] | 4.49 ± 1.4 |
| CNC(=O)c1cccc(-c2ccc3c(N4CCOC[C@@H]4C)nc(N4CCOC[C@@H]4C)nc3n2)c1 [vistusertib] | 4.66 ± 1.6 |
| CCN(c1cc(C#CCN2CCOCC2)cc(C(=O)NCc2c(C)cc(C)[nH]c2=O)c1C)[C@H]1CC[C@H](N(C)CCOC)CC1 | 4.44 ± 1.4 |

same assay, conditions: 0.1 µM

| SMILES | CTG-3D luminescence at 96 h |
| --- | --- |
| CC(C)(C(=O)NCC(F)(F)C(F)(F)F)C(=O)N[C@@H]1C(=O)Nc2ccccc2-c2ccccc21 | 4.48 ± 1.2 |
| C=CC(=O)N1CCC[C@@H](n2nc(-c3ccc(Oc4ccccc4)cc3)c3c(N)ncnc32)C1 [ibrutinib] | 4.64 ± 1.3 |
| CNC(=O)c1cccc(-c2ccc3c(N4CCOC[C@@H]4C)nc(N4CCOC[C@@H]4C)nc3n2)c1 [vistusertib] | 4.35 ± 1.2 |
| CCN(c1cc(C#CCN2CCOCC2)cc(C(=O)NCc2c(C)cc(C)[nH]c2=O)c1C)[C@H]1CC[C@H](N(C)CCOC)CC1 | 4.29 ± 1.3 |

same assay, conditions: 1 µM

| SMILES | CTG-3D luminescence at 96 h |
| --- | --- |
| CC(C)(C(=O)NCC(F)(F)C(F)(F)F)C(=O)N[C@@H]1C(=O)Nc2ccccc2-c2ccccc21 | 4.6 ± 1.4 |
| C=CC(=O)N1CCC[C@@H](n2nc(-c3ccc(Oc4ccccc4)cc3)c3c(N)ncnc32)C1 [ibrutinib] | 4.82 ± 1.4 |
| CNC(=O)c1cccc(-c2ccc3c(N4CCOC[C@@H]4C)nc(N4CCOC[C@@H]4C)nc3n2)c1 [vistusertib] | 3.31 ± 0.91 |
| CCN(c1cc(C#CCN2CCOCC2)cc(C(=O)NCc2c(C)cc(C)[nH]c2=O)c1C)[C@H]1CC[C@H](N(C)CCOC)CC1 | 4.31 ± 1.5 |

same assay, conditions: 10 µM

| SMILES | CTG-3D luminescence at 96 h |
| --- | --- |
| CC(C)(C(=O)NCC(F)(F)C(F)(F)F)C(=O)N[C@@H]1C(=O)Nc2ccccc2-c2ccccc21 | 4.7 ± 1.3 |
| C=CC(=O)N1CCC[C@@H](n2nc(-c3ccc(Oc4ccccc4)cc3)c3c(N)ncnc32)C1 [ibrutinib] | 4.66 ± 1.2 |
| CNC(=O)c1cccc(-c2ccc3c(N4CCOC[C@@H]4C)nc(N4CCOC[C@@H]4C)nc3n2)c1 [vistusertib] | 2.7 ± 0.56 |
| CCN(c1cc(C#CCN2CCOCC2)cc(C(=O)NCc2c(C)cc(C)[nH]c2=O)c1C)[C@H]1CC[C@H](N(C)CCOC)CC1 | 4.37 ± 1.4 |

same assay, conditions: 100 µM

| SMILES | CTG-3D luminescence at 96 h |
| --- | --- |
| CC(C)(C(=O)NCC(F)(F)C(F)(F)F)C(=O)N[C@@H]1C(=O)Nc2ccccc2-c2ccccc21 | 4.04 ± 1 |
| C=CC(=O)N1CCC[C@@H](n2nc(-c3ccc(Oc4ccccc4)cc3)c3c(N)ncnc32)C1 [ibrutinib] | -0.0103 ± 0.0032 |
| CNC(=O)c1cccc(-c2ccc3c(N4CCOC[C@@H]4C)nc(N4CCOC[C@@H]4C)nc3n2)c1 [vistusertib] | 1.9 ± 0.39 |
| CCN(c1cc(C#CCN2CCOCC2)cc(C(=O)NCc2c(C)cc(C)[nH]c2=O)c1C)[C@H]1CC[C@H](N(C)CCOC)CC1 | 4.39 ± 1.3 |

same assay, conditions: 625 fM

| SMILES | CTG-3D luminescence at 96 h |
| --- | --- |
| CC(C)(C(=O)NCC(F)(F)C(F)(F)F)C(=O)N[C@@H]1C(=O)Nc2ccccc2-c2ccccc21 | 4.6 ± 1.2 |
| C=CC(=O)N1CCC[C@@H](n2nc(-c3ccc(Oc4ccccc4)cc3)c3c(N)ncnc32)C1 [ibrutinib] | 4.55 ± 1.4 |
| CNC(=O)c1cccc(-c2ccc3c(N4CCOC[C@@H]4C)nc(N4CCOC[C@@H]4C)nc3n2)c1 [vistusertib] | 4.64 ± 1.4 |
| CCN(c1cc(C#CCN2CCOCC2)cc(C(=O)NCc2c(C)cc(C)[nH]c2=O)c1C)[C@H]1CC[C@H](N(C)CCOC)CC1 | 4.51 ± 1.3 |

system: HCI-003.E2 (organoid from an ER-positive breast cancer xenograft); test: as above; details: 12.5 pM

| SMILES | CTG-3D luminescence at 96 h |
| --- | --- |
| CC(C)(C(=O)NCC(F)(F)C(F)(F)F)C(=O)N[C@@H]1C(=O)Nc2ccccc2-c2ccccc21 | 2.16 ± 0.71 |
| C=CC(=O)N1CCC[C@@H](n2nc(-c3ccc(Oc4ccccc4)cc3)c3c(N)ncnc32)C1 [ibrutinib] | 2.16 ± 0.65 |
| CNC(=O)c1cccc(-c2ccc3c(N4CCOC[C@@H]4C)nc(N4CCOC[C@@H]4C)nc3n2)c1 [vistusertib] | 2.24 ± 0.71 |
| CCN(c1cc(C#CCN2CCOCC2)cc(C(=O)NCc2c(C)cc(C)[nH]c2=O)c1C)[C@H]1CC[C@H](N(C)CCOC)CC1 | 1.84 ± 0.67 |

same assay, conditions: 0.00025 µM

| SMILES | CTG-3D luminescence at 96 h |
| --- | --- |
| CC(C)(C(=O)NCC(F)(F)C(F)(F)F)C(=O)N[C@@H]1C(=O)Nc2ccccc2-c2ccccc21 | 2.26 ± 0.61 |
| C=CC(=O)N1CCC[C@@H](n2nc(-c3ccc(Oc4ccccc4)cc3)c3c(N)ncnc32)C1 [ibrutinib] | 2.46 ± 0.81 |
| CNC(=O)c1cccc(-c2ccc3c(N4CCOC[C@@H]4C)nc(N4CCOC[C@@H]4C)nc3n2)c1 [vistusertib] | 2.07 ± 0.48 |
| CCN(c1cc(C#CCN2CCOCC2)cc(C(=O)NCc2c(C)cc(C)[nH]c2=O)c1C)[C@H]1CC[C@H](N(C)CCOC)CC1 | 2.12 ± 0.78 |

same assay, conditions: 0.005 µM

| SMILES | CTG-3D luminescence at 96 h |
| --- | --- |
| CC(C)(C(=O)NCC(F)(F)C(F)(F)F)C(=O)N[C@@H]1C(=O)Nc2ccccc2-c2ccccc21 | 2.01 ± 0.5 |
| C=CC(=O)N1CCC[C@@H](n2nc(-c3ccc(Oc4ccccc4)cc3)c3c(N)ncnc32)C1 [ibrutinib] | 2.1 ± 0.51 |
| CNC(=O)c1cccc(-c2ccc3c(N4CCOC[C@@H]4C)nc(N4CCOC[C@@H]4C)nc3n2)c1 [vistusertib] | 2.3 ± 0.51 |
| CCN(c1cc(C#CCN2CCOCC2)cc(C(=O)NCc2c(C)cc(C)[nH]c2=O)c1C)[C@H]1CC[C@H](N(C)CCOC)CC1 | 1.71 ± 0.35 |

same assay, conditions: 0.1 µM

| SMILES | CTG-3D luminescence at 96 h |
| --- | --- |
| CC(C)(C(=O)NCC(F)(F)C(F)(F)F)C(=O)N[C@@H]1C(=O)Nc2ccccc2-c2ccccc21 | 2.28 ± 0.51 |
| C=CC(=O)N1CCC[C@@H](n2nc(-c3ccc(Oc4ccccc4)cc3)c3c(N)ncnc32)C1 [ibrutinib] | 1.93 ± 0.19 |
| CNC(=O)c1cccc(-c2ccc3c(N4CCOC[C@@H]4C)nc(N4CCOC[C@@H]4C)nc3n2)c1 [vistusertib] | 1.4 ± 0.36 |
| CCN(c1cc(C#CCN2CCOCC2)cc(C(=O)NCc2c(C)cc(C)[nH]c2=O)c1C)[C@H]1CC[C@H](N(C)CCOC)CC1 | 1.96 ± 0.49 |

same assay, conditions: 1 µM

| SMILES | CTG-3D luminescence at 96 h |
| --- | --- |
| CC(C)(C(=O)NCC(F)(F)C(F)(F)F)C(=O)N[C@@H]1C(=O)Nc2ccccc2-c2ccccc21 | 1.96 ± 0.61 |
| C=CC(=O)N1CCC[C@@H](n2nc(-c3ccc(Oc4ccccc4)cc3)c3c(N)ncnc32)C1 [ibrutinib] | 1.86 ± 0.43 |
| CNC(=O)c1cccc(-c2ccc3c(N4CCOC[C@@H]4C)nc(N4CCOC[C@@H]4C)nc3n2)c1 [vistusertib] | 0.0994 ± 0.037 |
| CCN(c1cc(C#CCN2CCOCC2)cc(C(=O)NCc2c(C)cc(C)[nH]c2=O)c1C)[C@H]1CC[C@H](N(C)CCOC)CC1 | 1.74 ± 0.4 |

same assay, conditions: 10 µM

| SMILES | CTG-3D luminescence at 96 h |
| --- | --- |
| CC(C)(C(=O)NCC(F)(F)C(F)(F)F)C(=O)N[C@@H]1C(=O)Nc2ccccc2-c2ccccc21 | 2.11 ± 0.91 |
| C=CC(=O)N1CCC[C@@H](n2nc(-c3ccc(Oc4ccccc4)cc3)c3c(N)ncnc32)C1 [ibrutinib] | 0.903 ± 0.24 |
| CNC(=O)c1cccc(-c2ccc3c(N4CCOC[C@@H]4C)nc(N4CCOC[C@@H]4C)nc3n2)c1 [vistusertib] | 0.0512 ± 0.022 |
| CCN(c1cc(C#CCN2CCOCC2)cc(C(=O)NCc2c(C)cc(C)[nH]c2=O)c1C)[C@H]1CC[C@H](N(C)CCOC)CC1 | 1.89 ± 0.95 |

same assay, conditions: 100 µM

| SMILES | CTG-3D luminescence at 96 h |
| --- | --- |
| CC(C)(C(=O)NCC(F)(F)C(F)(F)F)C(=O)N[C@@H]1C(=O)Nc2ccccc2-c2ccccc21 | 0.942 ± 0.23 |
| C=CC(=O)N1CCC[C@@H](n2nc(-c3ccc(Oc4ccccc4)cc3)c3c(N)ncnc32)C1 [ibrutinib] | -0.00322 ± 0.006 |
| CNC(=O)c1cccc(-c2ccc3c(N4CCOC[C@@H]4C)nc(N4CCOC[C@@H]4C)nc3n2)c1 [vistusertib] | 0.0137 ± 0.015 |
| CCN(c1cc(C#CCN2CCOCC2)cc(C(=O)NCc2c(C)cc(C)[nH]c2=O)c1C)[C@H]1CC[C@H](N(C)CCOC)CC1 | 0.658 ± 0.5 |

same assay, conditions: 625 fM

| SMILES | CTG-3D luminescence at 96 h |
| --- | --- |
| CC(C)(C(=O)NCC(F)(F)C(F)(F)F)C(=O)N[C@@H]1C(=O)Nc2ccccc2-c2ccccc21 | 1.86 ± 0.33 |
| C=CC(=O)N1CCC[C@@H](n2nc(-c3ccc(Oc4ccccc4)cc3)c3c(N)ncnc32)C1 [ibrutinib] | 2.1 ± 0.31 |
| CNC(=O)c1cccc(-c2ccc3c(N4CCOC[C@@H]4C)nc(N4CCOC[C@@H]4C)nc3n2)c1 [vistusertib] | 2.1 ± 0.35 |
| CCN(c1cc(C#CCN2CCOCC2)cc(C(=O)NCc2c(C)cc(C)[nH]c2=O)c1C)[C@H]1CC[C@H](N(C)CCOC)CC1 | 1.65 ± 0.4 |
